Conditions: Liquid, Vibrating tube method

C=C(C)C(=O)OCCN(C)C [2-(dimethylamino)ethyl methylpropenoate]
mass density [kg/m3]
Conditions | 100 kPa | 5000 kPa | 10000 kPa | 15000 kPa | 20000 kPa | 25000 kPa | 30000 kPa | 35000 kPa
293.15 K | 933.13 | 936.87 | 940.43 | 943.83 | 947.11 | 950.3 | 953.43 | 956.52
303.15 K | 923.03 | 926.88 | 930.61 | 934.24 | 937.79 | 941.28 | 944.74 | 948.19
313.15 K | 914.01 | 917.99 | 921.97 | 925.87 | 929.71 | 933.48 | 937.2 | 940.87

CCCCO [butan-1-ol]
mass density [kg/m3]
Conditions | 100 kPa | 5000 kPa | 10000 kPa | 15000 kPa | 20000 kPa | 25000 kPa | 30000 kPa | 35000 kPa
293.15 K | 809.28 | 813.04 | 816.54 | 819.83 | 822.97 | 826 | 828.99 | 831.99
303.15 K | 801.9 | 806 | 809.77 | 813.26 | 816.52 | 819.61 | 822.58 | 825.48
313.15 K | 794.32 | 798.42 | 802.22 | 805.8 | 809.2 | 812.49 | 815.73 | 818.97

CCO [ethanol]
mass density [kg/m3]
Conditions | 100 kPa | 5000 kPa | 10000 kPa | 15000 kPa | 20000 kPa | 25000 kPa | 30000 kPa | 35000 kPa
293.15 K | 788.94 | 793.35 | 797.51 | 801.44 | 805.18 | 808.74 | 812.17 | 815.49
303.15 K | 780.83 | 785.54 | 789.89 | 793.92 | 797.7 | 801.28 | 804.72 | 808.06
313.15 K | 772.04 | 776.85 | 781.35 | 785.59 | 789.62 | 793.47 | 797.2 | 800.84

CO [methanol]
mass density [kg/m3]
Conditions | 100 kPa | 5000 kPa | 10000 kPa | 15000 kPa | 20000 kPa | 25000 kPa | 30000 kPa | 35000 kPa
293.15 K | 791.15 | 795.92 | 800.41 | 804.64 | 808.67 | 812.52 | 816.25 | 819.89
303.15 K | 781.84 | 786.9 | 791.61 | 796.01 | 800.14 | 804.05 | 807.78 | 811.37
313.15 K | 772.35 | 777.48 | 782.37 | 786.99 | 791.38 | 795.59 | 799.69 | 803.73

CCCCCO [pentan-1-ol]
mass density [kg/m3]
Conditions | 100 kPa | 5000 kPa | 10000 kPa | 15000 kPa | 20000 kPa | 25000 kPa | 30000 kPa | 35000 kPa
293.15 K | 815.25 | 818.83 | 822.19 | 825.37 | 828.41 | 831.36 | 834.24 | 837.11
303.15 K | 808.05 | 811.93 | 815.5 | 818.82 | 821.92 | 824.88 | 827.74 | 830.55
313.15 K | 800.67 | 804.61 | 808.28 | 811.75 | 815.06 | 818.26 | 821.41 | 824.56

CCCO [propan-1-ol]
mass density [kg/m3]
Conditions | 100 kPa | 5000 kPa | 10000 kPa | 15000 kPa | 20000 kPa | 25000 kPa | 30000 kPa | 35000 kPa
293.15 K | 803.17 | 807.25 | 811.02 | 814.54 | 817.87 | 821.05 | 824.15 | 827.21
303.15 K | 795.52 | 799.83 | 803.8 | 807.49 | 810.95 | 814.23 | 817.38 | 820.48
313.15 K | 787.3 | 791.61 | 795.67 | 799.52 | 803.19 | 806.72 | 810.15 | 813.5

From the NIST ThermoML archive (doi:10.1021/acs.jced.8b00975)
